Test results published in patent US20190100534A1, “Cephem Compounds with Latent Reactive Groups” (Gladius Pharmaceuticals, Inc., priority 2017, published 2019).

Experiments:
[1] = test system: Isogenic E. coli J58 strain carrying CTX-M-14; experiment: MIC determination, isogenic E. coli strains; assay type: cell-based; settings: isogenic E. coli strain, CTX-M-14; CAMH broth, 20 μM Apo-Transferrin, 37° C., 18 hours
Procedure, shortened: (§1)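 Isogenic E. coli J53 carrying plasmid-encoded CTX-M-14 or CTX-M-15 (ampicillin-selected), standardized to 0.08-0.1 OD600, incubated overnight (18 h, 37° C.) in CAMH broth plus 20 μM apo-transferrin over 2-fold compound dilutions starting at 64 μg/mL. Lowest concentration with no visible growth recorded as MIC.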

[2] = test system: Isogenic E. coli J58 strain carrying CTX-M-15; experiment: MIC determination, isogenic E. coli strains; assay type: cell-based; settings: isogenic E. coli strain, CTX-M-15; CAMH broth, 20 μM Apo-Transferrin, 37° C., 18 hours
Procedure, shortened: as §1

EC(JMI OXA-48) = experiment: MIC determination; assay type: cell-based, Escherichia coli; settings: CAMH broth, 20 μM Apo-Transferrin, 37° C., 18 hours
Procedure, shortened: (§2)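 Broth microdilution in CAMH + 20 μM apo-transferrin; inoculum 0.5 McFarland, used within 30 min. Compound 64→0.125 μg/mL, twofold steps. 37 °C, 18 h. MIC = lowest clear-well concentration.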

EC (RR -1) = experiment: MIC determination; assay type: cell-based, Escherichia coli; settings: CAMH broth, 20 μM Apo-Transferrin, 37° C., 18 hours
Procedure, shortened: as §2

EC(ATCC NDM-1) = experiment: MIC determination; assay type: cell-based, Escherichia coli; settings: CAMH broth, 20 μM Apo-Transferrin, 37° C., 18 hours
Procedure, shortened: as §2

EC (URMC-3) = experiment: MIC determination; assay type: cell-based, Escherichia coli; settings: CAMH broth, 20 μM Apo-Transferrin, 37° C., 18 hours
Procedure, shortened: as §2

EC(KB2 CTX-M-15) = experiment: MIC determination; assay type: cell-based, Escherichia coli; settings: CAMH broth, 20 μM Apo-Transferrin, 37° C., 18 hours
Procedure, shortened: as §2

EC (URMC-1) = experiment: MIC determination; assay type: cell-based, Escherichia coli; settings: CAMH broth, 20 μM Apo-Transferrin, 37° C., 18 hours
Procedure, shortened: as §2

EC (URMC-2) = experiment: MIC determination; assay type: cell-based, Escherichia coli; settings: CAMH broth, 20 μM Apo-Transferrin, 37° C., 18 hours
Procedure, shortened: as §2

EC(KB1 CTX-M-15) = experiment: MIC determination; assay type: cell-based, Escherichia coli; settings: CAMH broth, 20 μM Apo-Transferrin, 37° C., 18 hours
Procedure, shortened: as §2

EC (RR -2) = experiment: MIC determination; assay type: cell-based, Escherichia coli; settings: CAMH broth, 20 μM Apo-Transferrin, 37° C., 18 hours
Procedure, shortened: as §2

[3] = test system: Isogenic E. coli J58 strain carrying DHA-1; experiment: MIC determination, isogenic E. coli strains; assay type: cell-based; settings: isogenic E. coli strain, DHA-1; CAMH broth, 20 μM Apo-Transferrin, 37° C., 18 hours
Procedure, shortened: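 MIC read as the lowest compound level giving a transparent well after 18 h at 37° C. Strains: parent E. coli J53 and isogenic transformants expressing plasmid-borne (pBC-SK(+)) beta-lactamases such as DHA-1; inoculum 0.5 McFarland; CAMH broth plus 20 μM apo-transferrin; compound 64 μg/mL downward, 2-fold dilutions.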

CF (RR -1) = experiment: MIC determination; assay type: cell-based, Citrobacter freundii; settings: CAMH broth, 20 μM Apo-Transferrin, 37° C., 18 hours
Procedure, shortened: as §2

[4] = test system: Isogenic E. coli J58 strain carrying VIM-2; experiment: MIC determination, isogenic E. coli strains; assay type: cell-based
Procedure, shortened: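 Broth microdilution in cation-adjusted Mueller-Hinton with 20 μM apo-transferrin, compound serially halved from 64 μg/mL, read by eye after 18 h at 37 °C as lowest clear well. Inoculum: VIM-2-expressing E. coli J53 (pBC-SK(+) plasmid), adjusted to 0.5 McFarland.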

[5] = test system: Isogenic E. coli J58 strain carrying TEM-26; experiment: MIC determination, isogenic E. coli strains; assay type: cell-based; settings: isogenic E. coli strain, TEM-26; CAMH broth, 20 μM Apo-Transferrin, 37° C., 18 hours
Procedure, shortened: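 E. coli J53 carried a pBC-SK(+) plasmid expressing TEM-26 β-lactamase. Compounds were serially halved from […] in CAMH broth containing 20 μM apo-transferrin, inoculated from a 0.5 McFarland culture and held overnight (18 h, 37° C); MIC read as the lowest concentration without visible growth.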

EA (URMC -3) = experiment: MIC determination; assay type: cell-based; settings: CAMH broth, 20 μM Apo-Transferrin, 37° C., 18 hours
Procedure, shortened: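 Organisms grown in LB at 37 °C to OD600 >0.1, adjusted to 0.08-0.1 OD600 in CAMH broth. Compounds two-fold serially diluted from 64 μg/mL in CAMH broth with 20 μM apo-transferrin; plates incubated 18 h at 37 °C. MIC taken as lowest concentration giving a transparent well.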

ENC (ATCC NDM-1) = experiment: MIC determination; assay type: cell-based, Enterobacter cloacae; settings: CAMH broth, 20 μM Apo-Transferrin, 37° C., 18 hours
Procedure, shortened: as §2

[6] = test system: KOXY (Klebsiella oxytoca); experiment: MIC determination; assay type: cell-based; settings: CAMH broth, 20 μM Apo-Transferrin, 37° C., 18 hours
Procedure, shortened: as §2

[7] = test system: KP (Klebsiella pneumoniae); experiment: MIC determination; assay type: cell-based; settings: 20 μM Apo-Transferrin, 37° C., 18 hours
Procedure, shortened: as §2

EC (Escherichia coli) = experiment: MIC determination; assay type: cell-based; settings: 20 μM Apo-Transferrin, 37° C., 18 hours
Procedure, shortened: as §2

[8] = test system: A. baumannii (JMI OXA-58); experiment: MIC determination; assay type: cell-based, Acinetobacter baumannii; settings: class D carbapenemase producer, CAMH broth, 20 μM Apo-Transferrin, 37° C., 18 hours
Procedure, shortened: as §2

A. baumannii = experiment: MIC determination; assay type: cell-based, Acinetobacter baumannii
Procedure, shortened: as §2

## CC(C)(O/N=C(\C(=O)N[C@@H]1C(=O)N2C(C(=O)O)=C(C=Cc3ccc(C[n+]4ccc5cc(O)c(O)cc5c4)cc3)CS[C@H]12)c1csc(N)n1)C(=O)O (mixture of isomers) [Compound 435, 2-(4-((E/Z)-2-((6R,7R)-7-((Z)-2-(2-aminothiazol-4-yl)-2-(((2-carboxypropan-2-yl)oxy)imino)acetamido)-2-carboxy-8-oxo-5-thia-1-azabicyclo[4.2.0]oct-2-en-3-yl)vinyl)benzyl)-6,7-dihydroxyisoquinolin-2-ium]
[1]
  Mimimum Inhibitory Concentrations, CTX-M-14: ≤0.06 microgram/mL
[2]
  Mimimum Inhibitory Concentrations, CTX-M-15: ≤0.06 microgram/mL
EC(JMI OXA-48)
  Minimum Inhibitory Concentrations, EC(JMI OXA-48): 0.5 microgram/mL
EC (RR -1)
  Mimimum Inhibitory Concentrations, EC (RR -1): ≤0.06 microgram/mL
EC(ATCC NDM-1)
  Minimum Inhibitory Concentrations, EC(ATCC NDM-1): >64 microgram/mL
EC (URMC-3)
  Minimum Inhibitory Concentrations, EC (URMC-3): 0.5 microgram/mL
EC(KB2 CTX-M-15)
  Minimum Inhibitory Concentrations, EC(KB2 CTX-M-15): 0.5 microgram/mL
EC (URMC-1)
  Minimum Inhibitory Concentrations, EC (URMC-1): ≤0.06 microgram/mL
EC (URMC-2)
  Minimum Inhibitory Concentrations, EC (URMC-2): ≤0.06 microgram/mL
EC(KB1 CTX-M-15)
  Minimum Inhibitory Concentrations, EC(KB1 CTX-M-15): 0.13 microgram/mL
EC (RR -2)
  Mimimum Inhibitory Concentrations, EC (RR -2): ≤0.06 microgram/mL
[3]
  Mimimum Inhibitory Concentrations, DHA-1: ≤0.06 microgram/mL
CF (RR -1)
  Mimimum Inhibitory Concentrations, CF (RR -1): ≤0.06 microgram/mL
[4]; isogenic E. coli strain, VIM-2, CAMH broth, 20 μM Apo-Transferrin, 37° C., 18 hours
  Mimimum Inhibitory Concentrations, VIM-2: ≤0.06 microgram/mL
[4]; review of Tables 4-1 and 4-2
  MICs for an E. coli strain carrying the gene for carbapenemase VIM-1, in words: low microgram/mL MICs
[5]
  Mimimum Inhibitory Concentrations, TEM-26: ≤0.06 microgram/mL
EA (URMC -3)
  Mimimum Inhibitory Concentrations, EA (URMC -3): 0.5 microgram/mL
ENC (ATCC NDM-1)
  Mimimum Inhibitory Concentrations, ENC (ATCC NDM-1): >64 microgram/mL
[6]
  Minimum Inhibitory Concentrations, KOXY: ≤0.06 microgram/mL
[7]; first KP column of Table 3-1, CAMH broth
  Minimum Inhibitory Concentrations, KP: ≤0.06 microgram/mL
[7]; second KP column of Table 3-1, CAMH broth
  Minimum Inhibitory Concentrations, KP: ≤0.06 microgram/mL
EC (Escherichia coli); Table 3-1, CAMH broth
  Minimum Inhibitory Concentrations, EC: ≤0.06 microgram/mL
EC (Escherichia coli); first EC column of Table 3-1, CAMH broth
  Minimum Inhibitory Concentrations, EC: ≤0.06 microgram/mL
[8]
  Minimum Inhibitory Concentrations, A. baumannii (JMI OXA-58): >64 microgram/mL
A. baumannii; A. baumannii, CAMH broth, 20 μM Apo-Transferrin, 37° C., 18 hours
  Minimum Inhibitory Concentrations, A. baumannii: 1 microgram/mL
A. baumannii; review of Table 2
  MICs for an Acinetobacter baumannii strain, in words: low microgram/mL MICs
